Several values for one entry are separate records, joined by “and”; a condition that tells them apart may be missing. Identical values can stand only once.
Tests used:
[1] = system: ADPRT; conditions: Proc. Nat. Acad. Sci. (USA), 84:1107 (1987); cited from earlier work
[2] = system: ADPRT; assay: Binding to ADPRT; conditions: 6-nitroso oxidation product
[3] = system: CMV; conditions: cited from earlier work
[4] = system: oris DNA of HSV-1; assay: Nitrocellulose filter binding to HSV-1 oris DNA; conditions: input oris DNA 8,000/sample
Experimental: This example illustrates HSV DNA binding at the site of replication (oris) initiation at ADPRT.
The 230 bp XbaI-HindIII oris DNA of HSV-1 was isolated from plasmid pKC4 and radioactively labeled with [32P]dCTP by fill-in reaction with the Klenow form of E. coli DNA polymerase. Labeled DNA fragments were purified as previously described in J. Virol., 63:2773 (1989).
Nitrocellulose filters (Schleicher and Schuell, BA 85, […] pore size, 27 mm diameter) were presoaked for 60 minutes in binding buffer (250 mM Tris-Cl, pH 8.0, 100 mM MgCl2, 1000 mM NaCl, 0.6 mM DTT, 0.1 mg/ml BSA, 0.1 mM PMSF and 0.1 mM TLCK). 5 ul of [32P] oris DNA was added to 210 ul of cold binding buffer and incubated for 1 minute. 2 ul of either ADPRT (200 ng) or HSV-1 infected Vero cell extract (Vero(F), 2 ug) was then added to the DNA solution and incubated for 10 minutes at 25° C. Samples were transferred to ice, followed by filtration through the nitrocellulose filters. The filters were then washed four times with cold wash buffer containing 25 mM Tris-Cl, pH 8.0, 10 mM MgCl2, 0.5 mM DTT, 100 mM NaCl, 5% DMSO. The filters were dried and the amount of radioactive material bound to the filters was determined by scintillation spectrophotometry.

## O=c1ccc2ccccc2o1 [1,2-benzopyrone]
[1]
  inhibition of ADPRT: inhibitory ligand

## O=Nc1ccc2oc(=O)ccc2c1 [6-NBP, 6-nitroso-1,2-benzopyrone]
[2]
  binding to zinc-fingers of ADPRT: binds specifically and with high affinity

## Nc1nc2c(ncn2COCCO)c(=O)[nH]1 [acyclovir]
[3]
  CMV sensitivity: CMV is resistant to acyclovir

## ADPRT
[4]
  % Specific Bound: 78.6% and ~80%
[4]; average of duplicate samples
  CPM Bound to Filter: 6384 CPM
